Key:
Penicillium sp. = experiment: Growth of Penicillium sp. in vitro in the presence of pure volatiles; type: cell-based; conditions: for Penicillium fungal development delayed: after 7 days at 23° C.
Method: (§1) In accordance with still another embodiment of the present invention, growth of Penicillium sp. and Aspergillus Niger was evaluated in vitro in the presence of hexanal, acetaldehyde and 2E-hexenal. The fungistatic and fungicidal effects of the pure volatiles were evaluated and presented below.

Aspergillus Niger = experiment: Growth of Aspergillus niger in vitro in the presence of pure volatiles; type: cell-based; conditions: 4 μL of volatile, after 7 days at room temperature
Method: as §1

[1] = oral, mammalian; cited from earlier work
Botrytis cinerea = experiment: Growth of B. cinerea exposed to volatile vapour in closed jars at 23° C.; conditions: 7 days at 23° C.
Excerpt: (§2) Fourteen-day-old surface-plated cultures of Colletotricumn acutatum, Alternaria alternata and Botrytis cinerea in plastic Petri dishes (9 cm diameter), were filled aseptically with PDA medium (Potato Dextrose Agar) (Sigma-Aldrich Corp. (Saint Louis, Mo.)), and mixed with a few drops of sterile distilled water. Ten mL of each were collected inside plastic tubes which were shaken hard to dislodge spores from mycelia. The spores and cell suspensions were then filtered with sterile cheesecloth to remove debris such as mycelia and condensed-agar fragments and the aliquot was concentrated to 10^6 c.f.u./mL (spore*mL^−1), which were counted by the Neubauer improved method (Bright-Line Hemacytometer, Hausser Scientific, Horsham, Pa.).
(§3) Smaller Petri dishes (5.5 cm diameter) were also filled aseptically with PDA. Upon solidification of the agar medium, a drop of spores of each suspension was inserted as a drop in the centre of the well with a 100 μL Oxford Autoclavable Benchmate Pipette (Nichiryo, Japan). Finally, the Petri dishes were placed inside 1 L-glass jars which were closed with twist-off tops and stored at 23° C. These were used as the controls.
(§4) Other jars were modified for inserting and withdrawing of the volatiles obtained from the bioassays. For that, jars tops were modified by introducing a septum through which the volatile was inserted on a small piece of glass which was suspended 4 cm above the bottom. The same device was used to withdraw samples during storage. […]
(§5) Radial growth of the cultures in controls and treated samples were evaluated daily by measuring the surface area of the plate occupied by the colony during incubation or by measuring the length of the colony. […] Each assay was tested in triplicate and the area means calculated were analyzed statistically by analysis of variance. The delay in fungal growth was expressed as direct radial growth of cultures in cm^2 or cm as a percentage of colony growth by comparing samples exposed to the anti-fungal treatments with the controls. […]

Colletotrichum acutatum = experiment: Growth of C. acutatum exposed to volatile vapour in closed jars at 23° C.; conditions: 7 days at 23° C.; for concentration that completely inhibited / avoided C. acutatum growth: headspace concentration
Excerpt: as §2, §3, §4, §5

Alternaria alternata = experiment: Growth of A. alternata exposed to volatile vapour in closed jars at 23° C.; conditions: 7 days at 23° C.; for concentration that completely inhibited / avoided A. alternata growth: headspace concentration
Excerpt: as §2, §3, §4, §5

Row | SMILES | Penicillium growth (Penicillium sp.; 1 μL of volatile, 1 week at 23° C.) | A. niger delay in growth (Aspergillus Niger) | ORL-MAM LD50 [1] [mg/kg] | prevention of B. cinerea growth (Botrytis cinerea; any amount tested) | concentration that completely inhibited / avoided C. acutatum growth (Colletotrichum acutatum) [μg/mL air] | concentration that completely inhibited / avoided A. alternata growth (Alternaria alternata) [μg/mL air] | Penicillium fungal development delayed (Penicillium sp.; insertion of 4 μL of volatile) | Penicillium fungal development delayed (Penicillium sp.; insertion of 6 μL of volatile) [%] | concentration that completely inhibited B. cinerea growth, equivalent ppm of volatile (Botrytis cinerea) [ppm] | concentration that completely inhibited B. cinerea growth (Botrytis cinerea; headspace concentration) [μg/mL air] | concentration that completely inhibited C. acutatum growth, equivalent ppm of volatile (Colletotrichum acutatum) [ppm] | concentration that completely inhibited A. alternata growth, equivalent ppm of volatile (Alternaria alternata) [ppm]
1 | CCC/C=C/C=O [2E-hexenal] | not able to grow | – | – | – | – | – | – | – | – | – | – | –
2 | CC=O [acetaldehyde] | – | over 66% | 250 | able to prevent | 0.44 | 0.10 | – | – | – | – | – | –
3 | CCCCCC=O [hexanal] | – | – | – | – | 0.91 | 1.91 | over 18% | > 74 | 4 | 1.05 | 1.5 | 7
